Laboratory results from PMC12670164, “In vitro and clinical data demonstrate negligible risk of drug–drug interactions with opelconazole, a novel inhaled antifungal agent” (Journal of Antimicrobial Chemotherapy, 2025).
Values joined by “and” are separate entries in the source; they are usually repeats but may differ in a detail not shown here. Equal entries are not always repeated.

Legend:
[1] = Phase 1 study: plasma pharmacokinetics of inhaled opelconazole in healthy volunteers; type: in vivo, human
Protocol: The study was conducted from February 2023 through June 2023 in accordance with the Declaration of Helsinki, Good Clinical Practice, and the International Conference on Harmonisation guidelines (South African National Clinical Trial Registry code: DOH-27-122022-5196). The study documents were approved by an Independent Ethics Committee. Study participants provided written informed consent prior to any study procedures.
Screening occurred within 28 days prior to the first dosing day (Figure 1). Participants were admitted to the study centre on Day −1 and were required to stay there until approximately 48 h after the morning dosing on Day 15. They returned for subsequent PK blood samples at approximately 72 (Day 18), 168 (Day 22) and 336 h (Day 29) after the last morning dosing. On Days 1 and 15, participants received oral midazolam 7.5 mg and oral caffeine 180 mg together after food ingestion.
Standard doses of midazolam and caffeine were used to characterize their PK profiles. The dose selected for opelconazole, 14.8 mg twice daily, is the dose utilized in the clinical development programme for the treatment and prevention of invasive pulmonary aspergillosis (IPA). Following 14 days of twice daily dosing, plasma concentrations were expected to be within 80% of steady-state concentrations and deemed appropriate to assess potential interactions with the probe substrates.
Study participants inhaled opelconazole 14.8 mg twice daily using the PARI LC SPRINT® jet nebuliser for 14 days, starting on Day 2 through Day 15. Morning doses of opelconazole on Day 2 and Day 15 were taken 30 min after food ingestion. Blood samples were taken for PK analyses for midazolam, metabolites of midazolam (1-OH-midazolam and 4-OH-midazolam) and caffeine on Days 1 and 15 at pre-dose (0 h), at 0.5, 1, 1.5, 2, 3, 4, 6, 8, 10, 12, 16, 24, 30, 36 and 48 h post-dose on Days 1 and 15. Blood samples were taken for PK analyses for opelconazole as follows: on Day 2 at pre-morning dose (0 h), at 0.5, 1, 2, 4, 6, 8, 12 and 24 h post-morning dose; on Day 15: at pre-morning-dose (0 h), at 0.5, 1, 2, 4, 6, 8, 10, 12, 24 (Day 16), 30 (Day 16), 36 (Day 16), 48 (Day 17), 72 (Day 18), 168 (Day 22) and 336 (Day 29) h post-morning-dosing.
Primary PK parameters assessed for midazolam and its metabolites (1-OH-midazolam, 4-OH-midazolam), caffeine and opelconazole were Cmax and AUC, from time zero to t, where t is the time of the last quantifiable concentration (AUC(0−t); i.e., AUC(0−12) and AUC(0−24)). Secondary PK parameters were AUC(0−∞), Tmax, apparent t1/2 and accumulation ratio (RO) of opelconazole only.

BSEP = biological target: T1, BSEP (Homo sapiens, UniProt O95342); assay: Transporter inhibition; type: in vitro ADME; settings: 0.5 and 5 μM tested
T1 construct: expressed in transfected cells; host or cells: Sf9 membrane vesicles
Protocol: (§1) Human transporter protein interactions with opelconazole as a potential substrate and/or inhibitor were assessed for the following key carrier transporters: organic anion transporters, OAT1 and OAT3; organic cation transporters, OCT1 and OCT2; OATP1B1 and OATP1B3; multidrug and toxin extrusion, MATE-1 and MATE2-K; key ATP-binding cassette (ABC) transporters including P-gp, breast cancer resistance protein (BCRP) and bile salt export pump (BSEP). Two concentrations of opelconazole, 0.5 and 5 μM, were tested using MDCKII cells, human embryonic kidney 293 cells and BSEP-transfected sf9 membrane vesicles and then analysed by LC-tandem MS to determine transporter inhibition and whether opelconazole was a transporter substrate. The viability of experimental test systems was confirmed with controls and known probe substrates and probe inhibitors.

P-gp = biological target: T2, P-gp (Homo sapiens, UniProt P08183); assay: Transporter inhibition; type: in vitro ADME
T2 construct: expressed in transfected cells
Protocol: as §1

BCRP = biological target: T3, BCRP (Homo sapiens, UniProt Q9UNQ0); assay: Transporter inhibition; type: in vitro ADME
T3 construct: expressed in transfected cells
T3 sequence (Q9UNQ0 1-655): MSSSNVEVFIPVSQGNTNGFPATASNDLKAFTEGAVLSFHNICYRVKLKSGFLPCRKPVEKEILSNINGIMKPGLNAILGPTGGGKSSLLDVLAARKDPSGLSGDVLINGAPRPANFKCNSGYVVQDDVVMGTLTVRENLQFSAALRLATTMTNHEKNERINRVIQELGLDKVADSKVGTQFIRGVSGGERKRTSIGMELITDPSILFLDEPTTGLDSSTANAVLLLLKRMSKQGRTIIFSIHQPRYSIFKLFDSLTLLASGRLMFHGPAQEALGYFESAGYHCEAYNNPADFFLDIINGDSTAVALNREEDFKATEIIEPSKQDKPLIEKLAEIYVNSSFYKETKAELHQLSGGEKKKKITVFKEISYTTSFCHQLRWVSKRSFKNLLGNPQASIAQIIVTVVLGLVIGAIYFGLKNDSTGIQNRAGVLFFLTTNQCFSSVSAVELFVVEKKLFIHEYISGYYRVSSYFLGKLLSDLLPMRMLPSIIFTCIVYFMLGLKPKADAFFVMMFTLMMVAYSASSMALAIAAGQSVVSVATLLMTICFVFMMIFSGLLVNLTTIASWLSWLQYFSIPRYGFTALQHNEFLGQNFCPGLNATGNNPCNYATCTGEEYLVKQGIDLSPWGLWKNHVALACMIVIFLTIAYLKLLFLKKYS
Protocol: as §1

MATE2-K = biological target: T4, MATE2-K (Homo sapiens, UniProt Q86VL8); assay: Transporter inhibition; type: in vitro ADME
T4 construct: expressed in transfected cells
Protocol: as §1

[2] = system: OAT1, OAT3, OCT1, OCT2, OATP1B1, OATP1B3, MATE-1, MATE2-K, P-gp, BCRP, BSEP; assay: Opelconazole as substrate of carrier transporters; type: in vitro ADME, human; settings: 0.5 and 5 μM; MDCKII, HEK293 cells, BSEP sf9 vesicles
Protocol: as §1

[3] = Day 2, inhaled 14.8 mg twice daily
[4] = Day 15, after 14 days inhaled 14.8 mg twice daily

T2 sequence (P08183 whole entry): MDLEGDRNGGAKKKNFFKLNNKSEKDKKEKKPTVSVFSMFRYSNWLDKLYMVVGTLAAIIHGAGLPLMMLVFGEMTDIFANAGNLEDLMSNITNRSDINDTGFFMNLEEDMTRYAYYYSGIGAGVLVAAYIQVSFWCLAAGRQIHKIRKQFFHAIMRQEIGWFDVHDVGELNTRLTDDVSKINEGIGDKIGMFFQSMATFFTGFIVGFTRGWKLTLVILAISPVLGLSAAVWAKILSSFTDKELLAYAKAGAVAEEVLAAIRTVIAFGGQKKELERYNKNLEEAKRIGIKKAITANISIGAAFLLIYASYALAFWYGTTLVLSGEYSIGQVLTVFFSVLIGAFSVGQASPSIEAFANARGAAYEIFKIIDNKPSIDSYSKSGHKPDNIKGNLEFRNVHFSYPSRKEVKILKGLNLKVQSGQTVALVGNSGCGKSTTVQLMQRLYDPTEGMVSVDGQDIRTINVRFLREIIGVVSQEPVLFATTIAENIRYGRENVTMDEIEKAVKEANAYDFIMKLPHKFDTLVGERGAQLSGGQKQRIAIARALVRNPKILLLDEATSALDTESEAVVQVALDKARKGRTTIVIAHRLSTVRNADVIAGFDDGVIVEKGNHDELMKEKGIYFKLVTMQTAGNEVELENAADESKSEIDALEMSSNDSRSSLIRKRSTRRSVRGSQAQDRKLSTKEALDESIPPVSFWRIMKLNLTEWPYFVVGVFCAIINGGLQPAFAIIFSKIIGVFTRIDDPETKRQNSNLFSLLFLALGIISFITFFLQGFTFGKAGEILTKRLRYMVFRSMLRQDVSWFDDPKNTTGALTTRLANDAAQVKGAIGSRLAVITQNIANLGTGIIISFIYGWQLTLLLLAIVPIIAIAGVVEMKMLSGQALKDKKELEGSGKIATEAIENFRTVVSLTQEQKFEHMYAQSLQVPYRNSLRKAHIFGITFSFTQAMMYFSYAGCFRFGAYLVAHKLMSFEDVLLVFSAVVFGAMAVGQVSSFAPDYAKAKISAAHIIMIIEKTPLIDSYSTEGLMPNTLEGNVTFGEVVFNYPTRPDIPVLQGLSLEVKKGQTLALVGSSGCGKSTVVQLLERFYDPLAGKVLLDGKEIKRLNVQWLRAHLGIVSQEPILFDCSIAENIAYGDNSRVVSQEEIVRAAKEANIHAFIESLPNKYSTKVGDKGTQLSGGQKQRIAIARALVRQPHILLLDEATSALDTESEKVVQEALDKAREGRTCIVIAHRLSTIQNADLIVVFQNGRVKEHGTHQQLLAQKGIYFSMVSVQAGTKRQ
T4 sequence (Q86VL8 1-566 isoform Q86VL8-3): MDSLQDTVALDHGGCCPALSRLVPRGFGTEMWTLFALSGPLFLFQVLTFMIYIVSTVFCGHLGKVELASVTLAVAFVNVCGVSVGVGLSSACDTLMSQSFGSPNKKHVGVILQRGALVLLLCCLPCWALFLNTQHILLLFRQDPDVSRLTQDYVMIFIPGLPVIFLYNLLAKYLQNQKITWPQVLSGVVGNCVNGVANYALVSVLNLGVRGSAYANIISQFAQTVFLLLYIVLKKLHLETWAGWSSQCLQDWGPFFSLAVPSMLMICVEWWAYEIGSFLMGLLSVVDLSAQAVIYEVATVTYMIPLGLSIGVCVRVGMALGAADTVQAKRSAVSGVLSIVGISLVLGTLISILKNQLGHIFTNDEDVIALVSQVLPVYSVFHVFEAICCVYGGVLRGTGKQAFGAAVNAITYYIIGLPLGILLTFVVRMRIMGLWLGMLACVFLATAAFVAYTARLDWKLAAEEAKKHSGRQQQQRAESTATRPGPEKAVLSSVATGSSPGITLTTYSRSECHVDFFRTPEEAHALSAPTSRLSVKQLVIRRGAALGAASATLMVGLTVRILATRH
T1 sequence (O95342 whole entry): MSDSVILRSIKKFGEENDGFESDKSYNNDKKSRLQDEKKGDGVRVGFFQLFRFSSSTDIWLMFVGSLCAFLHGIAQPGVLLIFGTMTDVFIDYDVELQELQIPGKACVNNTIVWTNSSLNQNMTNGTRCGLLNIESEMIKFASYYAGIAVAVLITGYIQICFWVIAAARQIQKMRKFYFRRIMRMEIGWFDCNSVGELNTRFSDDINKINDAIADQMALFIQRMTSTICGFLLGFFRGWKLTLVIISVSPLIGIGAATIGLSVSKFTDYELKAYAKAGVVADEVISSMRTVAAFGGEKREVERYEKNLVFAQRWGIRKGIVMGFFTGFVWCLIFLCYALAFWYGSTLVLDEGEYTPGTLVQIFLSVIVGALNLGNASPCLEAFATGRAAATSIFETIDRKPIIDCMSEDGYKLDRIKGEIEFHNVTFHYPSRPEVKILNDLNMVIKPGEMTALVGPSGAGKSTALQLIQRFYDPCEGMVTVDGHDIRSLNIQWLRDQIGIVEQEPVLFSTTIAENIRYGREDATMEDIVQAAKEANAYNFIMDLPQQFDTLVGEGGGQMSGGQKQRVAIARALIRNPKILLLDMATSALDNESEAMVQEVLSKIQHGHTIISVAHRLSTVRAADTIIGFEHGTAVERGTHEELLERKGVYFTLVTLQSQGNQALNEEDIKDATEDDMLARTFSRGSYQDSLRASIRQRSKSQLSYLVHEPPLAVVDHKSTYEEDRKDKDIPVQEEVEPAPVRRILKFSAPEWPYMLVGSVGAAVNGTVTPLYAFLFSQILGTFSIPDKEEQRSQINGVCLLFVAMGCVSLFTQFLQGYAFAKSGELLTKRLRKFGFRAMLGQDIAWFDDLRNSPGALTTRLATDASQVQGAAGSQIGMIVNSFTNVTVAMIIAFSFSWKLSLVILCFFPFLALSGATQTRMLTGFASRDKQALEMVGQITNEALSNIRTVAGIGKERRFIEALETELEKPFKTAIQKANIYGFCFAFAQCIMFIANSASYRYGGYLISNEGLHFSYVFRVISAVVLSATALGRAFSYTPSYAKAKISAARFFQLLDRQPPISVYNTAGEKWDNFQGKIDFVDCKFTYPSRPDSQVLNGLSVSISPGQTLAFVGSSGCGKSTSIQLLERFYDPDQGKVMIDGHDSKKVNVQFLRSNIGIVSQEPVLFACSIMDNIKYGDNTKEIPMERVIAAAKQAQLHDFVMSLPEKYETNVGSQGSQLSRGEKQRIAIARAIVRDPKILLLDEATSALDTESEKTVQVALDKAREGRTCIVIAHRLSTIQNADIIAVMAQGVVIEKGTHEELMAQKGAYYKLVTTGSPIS

SMILES: Cc1cc(N2CCN(c3ccc(C(=O)Nc4ccc(F)cc4)cc3)CC2)ccc1OC[C@@H]1CO[C@@](Cn2cncn2)(c2ccc(F)cc2F)C1 [opelconazole]
- AUC(0–12 h), geometric mean (CV%) ([1]; Day 2 (first dosing day), inhaled 14.8 mg twice daily): 7.81 (27.8) h·ng/mL
- AUC(0-t), geometric mean (CV%) [1, 3]: 19.9 (29.4) h·ng/mL
- AUC(0–24 h), geometric mean (CV%) [1, 3]: 19.6 (29.4) h·ng/mL
- Cmax, geometric mean (CV%) [1, 3]: 0.91 (29.3) ng/mL
- Tmax, median (range) [1, 3]: 6.17 (2.17, 12.1) h
- AUC(0-t), geometric mean (CV%) [1, 4]: 1270 (45.8) h·ng/mL
- AUC(0–12 h), geometric mean (CV%) [1, 4]: 69.8 (45.4) h·ng/mL
- AUC(0–24 h), geometric mean (CV%) [1, 4]: 136 (46.7) h·ng/mL
- Cmax, geometric mean (CV%) [1, 4]: 7.07 (47.2) ng/mL
- Tmax, median (range) [1, 4]: 4.17 (0.67, 48.0) h
- t½, geometric mean (CV%) [1, 4]: 188 (21.4) h
- AUC(0−∞), geometric mean (CV%) ([1]; Day 15, inhaled 14.8 mg twice daily, n=2): 1720 (31.2) h·ng/mL
- RO (accumulation ratio) AUC(0–12 h) Day 15/Day 2, geometric mean (CV%) ([1]; inhaled 14.8 mg twice daily): 8.93 (38.4)
- RO (accumulation ratio) AUC(0–24 h) Day 15/Day 2, geometric mean (CV%) ([1]; inhaled 14.8 mg twice daily): 6.97 (35.8)
- RO (accumulation ratio) Cmax Day 15/Day 2, geometric mean (CV%) ([1]; inhaled 14.8 mg twice daily): 7.77 (46.7)
- observed RO (Day 15/Day 2) for AUC0–12h ([1]; inhaled 14.8 mg twice daily): 8.9 fold
- observed RO (Day 15/Day 2) for Cmax ([1]; inhaled 14.8 mg twice daily): 7.8 fold
- Cmax ([1]; multiple inhaled doses, clinical dosing, read-out: systemic Cmax at steady state): 10 nM and ≤ 10 nM
- inhibitory interaction with BSEP (BSEP): negligible inhibitory interactions
- inhibitory interaction with P-gp (P-gp; 0.5 μM opelconazole): negligible inhibitory interactions
- inhibition of P-gp relative to solvent control (P-gp; 5 μM opelconazole): 52%
- inhibition of BCRP relative to solvent control (BCRP; 0.5 μM opelconazole): 52%
- inhibition of BCRP relative to solvent control (BCRP; 5 μM opelconazole): 56%
- inhibition of MATE2-K relative to solvent control (MATE2-K; 0.5 μM opelconazole): 19%
- inhibition of MATE2-K relative to solvent control (MATE2-K; 5 μM opelconazole): 52%
- substrate of carrier transporters [2]: not a substrate
